Data from the supplement of paper PMC6723410.

tested on: GUMC-403; assay: viability at highest tested concentration (max response) relative to DMSO (% of DMSO control); higher = less cytotoxic; details: library / dose series: MIPE library, 11-point 1:3 dilution; top concentration 7.37 µM; 48 h
Procedure, shortened: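 This value is viability at the highest tested concentration relative to vehicle control. GUMC-403 papilloma cells from a patient, grown by conditional reprogramming, were plated at 700/well in 1536-well plates and given 23 nL of compound by pin tool for 48 h. CellTiter-Glo luminescence on a ViewLux was normalised with vehicle wells at 100% and empty wells at 0%.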

SMILES	viability
COc1ccc(CC2c3cc(OC)c(OC)cc3CC[N+]2(C)CCC(=O)OCCCCCOC(=O)CC[N+]2(C)CCc3cc(OC)c(OC)cc3C2Cc2ccc(OC)c(OC)c2)cc1OC (centres undefined)	84

same assay, conditions: library / dose series: MIPE library, 11-point 1:3 dilution; top concentration 46.1 µM; 48 h

SMILES	viability
C[C@@H]1C[C@H]2[C@@H]3CC\C4=C\C(=O)\C=C/[C@]4(C)[C@@]3(Cl)[C@@H](O)C[C@]2(C)[C@@]1(OC(=O)C5=CC=CO5)C(=O)CCl	133
Cc1ccnc(N[S+](=O)([O-])c2ccc(NC(=O)Nc3ccc([S+](=O)([O-])Nc4nccc(C)n4)cc3)cc2)n1	121
NC1=C(Cl)C(=CC=N1)OC2=C(F)C=C(NC(=O)\C3=C\N\C=C(C3=O)\C4=CC=C(F)C=C4)C=C2	108
CC(O)(C[S+](=O)([O-])c1ccc(F)cc1)C(=O)Nc1ccc(C#N)c(C(F)(F)F)c1 (centres undefined)	114
COc1cc([C@@H]2c3cc4c(cc3[C@@H](O[C@@H]3O[C@@H]5CO[C@@H](C)O[C@H]5[C@H](O)[C@H]3O)[C@H]3COC(=O)[C@H]23)OCO4)cc(OC)c1O	124
CC1(C)SCCN([S+](=O)([O-])c2ccc(OCC#CCO)cc2)[C@H]1C(=O)NO	103
CC(=O)C1=C(O)C2(C)C(=CC1=O)Oc1c(C(C)=O)c(O)c(C)c(O)c12 (centres undefined)	143
N#CCNC(=O)c1ccc(-c2ccnc(Nc3ccc(N4CCOCC4)cc3)n2)cc1	9.51
CC1=C(/C=C/C(C)=C/C=C/C(C)=C/C(=O)O)C(C)(C)CCC1	86.6
Oc1c(Cl)cc(Cl)c2cccnc12	128
N#Cc1ccc(C(c2ccc(C#N)cc2)n2cncn2)cc1	95.7
CCOC(=O)[C@H](CCc1ccccc1)N[C@H]1CCc2ccccc2N(CC(=O)O)C1=O	124
C[C@]1(O)CC(C1)C2=NC(=C3[N]2C=CN=C3N)C4=CC5=C(C=C4)C=CC(=N5)C6=CC=CC=C6 (centres undefined)	86.4
OC(COC1=C2C(=O)\C=C(/OC2=CC=C1)C([O-])=O)COC3=C4C(=O)\C=C(/OC4=CC=C3)C([O-])=O	113
Cc1ccccc1C(C(=O)NC1CCCC1)N(C(=O)Cn1cnc2ccccc21)c1cccc(F)c1 (centres undefined)	101
COc1cc(C(C)=O)ccc1OCCCN1CCC(c2noc3cc(F)ccc23)CC1	102
Nc1ncnc2c1ncn2[C@@H]1O[C@H](CO)C[C@H]1O	97.3
CC(C)(O)CCc1ccc(OCc2cc(-c3cccc(OC(F)F)c3)c3ncccc3c2)cc1	143
CCOC(=O)C(C)(C)Oc1ccc(Cl)cc1	110
COc1ccc(CCC(=O)c2c(O)cc(O[C@@H]3O[C@H](CO)[C@@H](O)[C@H](O)[C@H]3O[C@@H]3O[C@@H](C)[C@H](O)[C@@H](O)[C@H]3O)cc2O)cc1O	57.9
C=C1C(=O)OC(CCCCCCCC)C1C(=O)O (centres undefined)	121
CC(C)(O)CC(=O)NCCn1ccc2ncnc(Nc3ccc(Oc4cccc(C(F)(F)F)c4)c(Cl)c3)c21	71.7
O=C1c2c(O)cc(O)cc2O[C@H](c2cc(O)c(O)c(O)c2)[C@H]1O	115
C[C@H]1CC2C3CCC/4=C/C(=O)/C=C\[C@]4(C)[C@@]3(F)[C@@H](O)C[C@]2(C)[C@@]1(O)C(=O)CO (some centres undefined)	127
C=CCO/N=C(/C[C@H]1O[C@@H]2O[C@]3(C)CC[C@H]4[C@H](C)CC[C@@H]([C@H]1C)[C@@]24OO3)[C@H]1O[C@@H]2O[C@]3(C)CC[C@H]4[C@H](C)CC[C@@H]([C@H]1C)[C@@]24OO3	92.1
OC1CCC(CC1)N2\C=N/C3=C(C2=N)C(=C([N]3CC4=CC=CC=C4)C5=CC=CC=C5)C6=CC=CC=C6 (centres undefined)	126

SMILES	viability
CC(C)(C)C(=O)Oc1ccc([S+](=O)([O-])Nc2ccccc2C(=O)NCC(=O)O)cc1	113
COc1ccc(C(=O)CC(=O)c2ccc(C(C)(C)C)cc2)cc1	126
C=C1C(=O)O[C@@H]2[C@H]3O[C@]3(C)CC/C=C(\C)CC[C@@H]12	108
Cc1cc(Nc2nc(N[C@@H](C)c3ccc(F)cc3)c(C#N)cc2F)n[nH]1	65.1
O=c1[nH]c2ccccc2n1C1CCN(Cc2ccc(-c3nc4cc5nc[nH]c5cc4nc3-c3ccccc3)cc2)CC1	103
Cc1cccc(C)c1OCC(=O)N[C@@H](Cc1ccccc1)[C@@H](O)C[C@H](Cc1ccccc1)NC(=O)[C@H](C(C)C)N1CCCNC1=O	121
CC(=O)OC\C1=C(\[N@]2[C@@H](SC1)[C@H](N)C2=O)C(O)=O	143
F\C1=C\NC(=O)NC1=O	109
CC(C(=O)O)c1ccc(-c2ccccc2)c(F)c1 (centres undefined)	110
O=c1cc(O)c(Cl)c[nH]1	106
CCOC(=O)[C@@H](N)Cc1ccc(-c2cc(O[C@H](c3ccc(Cl)cc3-n3ccc(C)n3)C(F)(F)F)nc(N)n2)cc1.O=C(O)CNC(=O)c1ccccc1	117
ClC1=CC\2=C(OC3=C(C=CC=C3)\N=C2N4CCNCC4)C=C1	110
COC1=CC=C2CN(C)CC[C@@]34\C=C/[C@H](O)C[C@@H]3OC1=C24	122
OC[C@H]1O[C@H](C[C@@H]1O)[N]2C=NC3=C2\N=C/NC[C@H]3O	83.1
O=C(C1CC1)N1CC[C@@H](Cn2c(-c3ccc(-c4ccc5occc5c4)cc3)nc3cnccc32)C1	124
CC1CCC(C(=O)N(c2cc(C#CC(C)(C)C)sc2C(=O)O)C2CCC(O)CC2)CC1 (centres undefined)	106
COc1cc2nccc(Oc3ccc(NC(=O)NC4CC4)c(Cl)c3)c2cc1C(N)=O	89.9
O=C1CCc2cc(OCCCCc3nnnn3C3CCCCC3)ccc2N1	107
OC[C@H]1O[C@@H]2[C@@H](OC\3=N\C(=N)\C=C/[N@@]23)[C@@H]1O	124
CCc1cc(C(N)=S)ccn1	120
O=[S+]([O-])(O)c1ccc2cc(/N=N/c3cc([S+](=O)([O-])O)c4cccnc4c3O)ccc2c1	126
CN1\C(=C(\O)C2=C(C=CS2)[S+]1([O-])=O)C(=O)NC3=CC=CC=N3	126
O=C1NCCc2[nH]c(-c3ccncc3)cc21	125
C[C@H]1C[C@H]2[C@@H]3CCC4=CC(=O)C=C[C@]4(C)[C@H]3C(=O)C[C@]2(C)[C@@]1(O)C(=O)CO	104
CC1(C)[C@@H](O)CC[C@@]2(C)[C@H]1CC[C@]3(C)[C@@H]2C(=O)\C=C/4[C@@H]5C[C@](C)(CC[C@]5(C)CC[C@@]34C)C(O)=O	117
C/C=C1\C2C=C(C)CC1(N)c1ccc(=O)[nH]c1C2 (centres undefined)	118

SMILES	viability
CC1(C)OC2CC3C4CC(F)C/5=C/C(=O)/C=C\C5(C)C4C(O)CC3(C)[C@@]2(O1)C(=O)CO (some centres undefined)	148
N/C(=N\C(=O)c1nc(Cl)c(N)nc1N)NCc1ccccc1	130
Cn1cc(-c2ccc3nnc(Sc4ccc5ncccc5c4)n3n2)cn1	108
CC(NC(C)(C)C)C(=O)c1cccc(Cl)c1 (centres undefined)	127
N[C@H](CSC(c1ccccc1)(c1ccccc1)c1ccccc1)C(=O)O	103
N#CC(c1ccnc(NCCc2cccnc2)n1)c1nc2ccccc2s1 (centres undefined)	108
C=CCc1cc(OC)c(O)c(C(=O)NCCO)c1	118
CN(C)c1ccc(O)c2c1C[C@H]1C[C@H]3[C@H](N(C)C)C(O)=C(C(N)=O)C(=O)[C@@]3(O)C(O)=C1C2=O	110
O=C(/C=C/c1ccc(/C=C/C(=O)Nc2ccc(C3=NCCN3)cc2)cc1)Nc1ccc(C2=NCCN2)cc1	117
CO[C@H]1C[C@H]2OC[C@@]2(OC(C)=O)[C@H]3[C@H](OC(=O)C4=CC=CC=C4)[C@]5(O)C[C@H](OC(=O)[C@H](O)[C@@H](NC(=O)OC(C)(C)C)C6=CC=CC=C6)/C(=C(/[C@@H](OC)C(=O)[C@]13C)C5(C)C)C	88.5
COC1=CC=C(C=C1)/C2=C(O)/C(=O)C3=C(O)C=C(O)C(=C3O2)CC=C(C)C	138
N#Cc1c(N(CC(=O)[O-])CC(=O)[O-])sc(C(=O)[O-])c1CC(=O)[O-].O.O.O.O.O.O.O.[Sr+2].[Sr+2]	112
C=CC(=O)Nc1cccc(Sc2nc(Nc3ccc(N4CCN(C)CC4)cc3)ncc2Cl)c1	70.3
CC1=CC=C(C=C1)N(C\C2=N\CCN2)C3=CC=CC(=C3)O	116
CCCC1=NC(=C2[N]1NC(=N\C2=O)/C3=CC(=CC=C3OCC)[S+]([O-])(=O)N4CCN(CC)CC4)C	102
CC(C)c1cc(C(C)C)c(CC(=O)N[S+](=O)([O-])Oc2c(C(C)C)cccc2C(C)C)c(C(C)C)c1	99.7
Cc1ccc(/C=N/NC(=O)c2ccccc2Oc2ccccc2)o1	92
CN1[C@@H]2CC[C@H]1CC(OC(=O)c1c[nH]c3ccccc13)C2 (some centres undefined)	134
CC(C)(C(=O)NCC(F)(F)C(F)(F)F)C(=O)N[C@@H]1C(=O)Nc2ccccc2-c2ccccc21	88.8
O=C(c1ccc(/C=C/c2n[nH]c3ccccc23)cc1)N1CCNCC1	86.5
COc1ccc(-c2oc3cc(OC)ccc3c2C(=O)c2ccc(C#N)cc2)cc1	142
COc1cc(C(=O)NC2CCN(C)CC2)ccc1Nc1ncc2c(n1)N(C1CCCC1)CCC(=O)N2C(C)C	93.5
c1coc(CNc2ncnc3nc[nH]c23)c1	108
CC(C)(C)C(=O)Oc1ccc2c(c1)nc(NC(=O)c1cccc([N+](=O)[O-])c1)n2CCCO	106
CN1C(=O)C[C@H](C(=O)N[C@@H](Cc2cnc[nH]2)C(=O)N2CCC[C@H]2C(N)=O)NC1=O	103
CC(C)n1c(/C=C/[C@H](O)C[C@H](O)CC(=O)O)c(-c2ccc(F)cc2)c2ccccc21	103
